Results on 1 compound are retold here after patent US12077503B2, “Substituted cyclic amides and their use as herbicides” (FMC CORPORATION, priority 2015, dated 2024).

What all share (format): in vivo
The subject of experiment [1] is Kochia (Kochia scoparia). Put plainly: Test A preemergence. To be noted: Bassia scoparia, pre-emergence, 240 h. Put shortly: (§1)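 Seeds sprayed preemergence with a directed soil spray, or plants at 2 to 10 cm height and one- to two-leaf stage sprayed postemergence, with test chemicals in a non-phytotoxic solvent mixture containing surfactant, in loam soil–sand blend. Injury rated visually against untreated controls after about 10 d in greenhouse, 0 (no effect) to 100 (complete control).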

The subject of experiment [2] is barnyardgrass (Echinochloa crus-galli). Put plainly: Test A preemergence. To be noted: Echinochloa crus-galli, pre-emergence, 240 h. Put shortly: as §1
Experiment [3] deals with giant foxtail (Setaria faberii). The experiment is described as follows: Test A preemergence. The following applies: Setaria faberi, pre-emergence, 240 h. Put shortly:
as §1

For experiment [4], the system named is pigweed (Amaranthus retroflexus). The experiment is described as follows: Test A preemergence. To be noted: Amaranthus retroflexus, pre-emergence, 240 h.
Experiment [5] deals with ragweed (common ragweed, Ambrosia elatior). Put plainly: Test A preemergence. To be noted: Ambrosia artemisiifolia, pre-emergence, 240 h. Put shortly: as §1
In experiment [6] the test system is ryegrass, Italian (Italian ryegrass, Lolium multiflorum). Put plainly: Test A preemergence. The following applies: Lolium multiflorum, pre-emergence, 240 h. Put shortly: as §1
For experiment [7], the system named is Galium (catchweed bedstraw, Galium aparine). Put plainly: Test A postemergence. The following applies: Galium, post-emergence, 240 h, 125 g ai/ha, postemergence, visual injury rating after approximately 10 d; read-out: Galium plant response rating (0 to 100 scale, 0 no effect, 100 complete control). In short, it runs like this: as §1
Experiment [8] has as its system Kochia (Kochia scoparia). The experiment is described as follows: Test A postemergence. The following applies: Bassia scoparia, post-emergence, 240 h, 125 g ai/ha, postemergence, visual injury rating after approximately 10 d; read-out: Kochia plant response rating (0 to 100 scale, 0 no effect, 100 complete control). In short, it runs like this: as §1
The subject of experiment [9] is barnyardgrass (Echinochloa crus-galli). Put plainly: Test A postemergence. The following applies: Echinochloa crus-galli, post-emergence, 240 h, 125 g ai/ha, postemergence, visual injury rating after approximately 10 d; read-out: Barnyardgrass plant response rating (0 to 100 scale, 0 no effect, 100 complete control). Put shortly:
as §1

The subject of experiment [10] is blackgrass (Alopecurus myosuroides). The experiment is described as follows: Test A postemergence. The following applies: Alopecurus myosuroides, post-emergence, 240 h, 125 g ai/ha, postemergence, visual injury rating after approximately 10 d; read-out: Blackgrass plant response rating (0 to 100 scale, 0 no effect, 100 complete control). Put shortly: as §1
The next experiment relates to corn (Zea mays). Put plainly: Test A postemergence. To be noted: Zea mays, post-emergence, 240 h, 125 g ai/ha, postemergence, visual injury rating after approximately 10 d; read-out: Corn plant response rating (0 to 100 scale, 0 no effect, 100 complete control). In short, it runs like this:
as §1

Experiment [11] has as its system giant foxtail (Setaria faberii). Put plainly: Test A postemergence. To be noted: Setaria faberi, post-emergence, 240 h, 125 g ai/ha, postemergence, visual injury rating after approximately 10 d; read-out: Foxtail, Giant plant response rating (0 to 100 scale, 0 no effect, 100 complete control). In short, it runs like this: as §1
Experiment [12] deals with ragweed (common ragweed, Ambrosia elatior). Put plainly: Test A postemergence. The following applies: Ambrosia artemisiifolia, post-emergence, 240 h, 125 g ai/ha, postemergence, visual injury rating after approximately 10 d; read-out: Ragweed plant response rating (0 to 100 scale, 0 no effect, 100 complete control). Put shortly: as §1
Experiment [13] concerns ryegrass, Italian (Italian ryegrass, Lolium multiflorum). The experiment is described as follows: Test A postemergence. To be noted: Lolium multiflorum, post-emergence, 240 h, 125 g ai/ha, postemergence, visual injury rating after approximately 10 d; read-out: Ryegrass, Italian plant response rating (0 to 100 scale, 0 no effect, 100 complete control). Put shortly: as §1
The subject of experiment [14] is wheat (Triticum aestivum). The experiment is described as follows: Test A postemergence. The following applies: Triticum aestivum, post-emergence, 240 h, 125 g ai/ha, postemergence, visual injury rating after approximately 10 d; read-out: Wheat plant response rating (0 to 100 scale, 0 no effect, 100 complete control). In short, it runs like this: as §1

Regarding `Cc1c(F)ccc([C@H]2CN(C)C(=O)[C@@H]2C(=O)Nc2cccc(F)c2F)c1F` [Compound 834], the pest or weed control at 125 g/ha was found to be 80% in the experiment with Kochia (Kochia scoparia) [1] (125 g ai/ha, preemergence, 0 to 100 scale where 0 is no effect and 100 is complete control, read-out: Kochia plant response rating); 90% in [2] (125 g ai/ha, preemergence, 0 to 100 scale where 0 is no effect and 100 is complete control, read-out: Barnyardgrass plant response rating); 90% in experiment [3] (125 g ai/ha, preemergence, 0 to 100 scale where 0 is no effect and 100 is complete control, read-out: Foxtail, Giant plant response rating); 0% in [4] (125 g ai/ha, preemergence, 0 to 100 scale where 0 is no effect and 100 is complete control, read-out: Pigweed plant response rating); 0% in experiment [5] (125 g ai/ha, preemergence, 0 to 100 scale where 0 is no effect and 100 is complete control, read-out: Ragweed plant response rating); 70% in [6] (125 g ai/ha, preemergence, 0 to 100 scale where 0 is no effect and 100 is complete control, read-out: Ryegrass, Italian plant response rating). For the same compound, the pest or weed control at 125 g/ha is 60% in [7]; 40% in the experiment with Kochia (Kochia scoparia) [8]; 90% in experiment [9]; 60% in experiment [10]; 90% in experiment [11]; 0% in experiment [12]. In addition, the pest or weed control at 125 g/ha in experiment [13] was 60%. Moreover, the pest or weed control at 500 g/ha in the experiment on Kochia (Kochia scoparia) [1] (500 g ai/ha, Preemergence, visual injury vs untreated controls after approximately 10 d, read-out: Kochia plant response rating (0 to 100 scale where 0 is no effect and 100 is complete control)) is 90%; in experiment [2] (500 g ai/ha, Preemergence, visual injury vs untreated controls after approximately 10 d, read-out: Barnyardgrass plant response rating (0 to 100 scale where 0 is no effect and 100 is complete control)), 90%; in experiment [3] (500 g ai/ha, Preemergence, visual injury vs untreated controls after approximately 10 d, read-out: Foxtail, Giant plant response rating (0 to 100 scale where 0 is no effect and 100 is complete control)) it was 100%; in experiment [4] (500 g ai/ha, Preemergence, visual injury vs untreated controls after approximately 10 d, read-out: Pigweed plant response rating (0 to 100 scale where 0 is no effect and 100 is complete control)), 30%; in experiment [5] (500 g ai/ha, Preemergence, visual injury vs untreated controls after approximately 10 d, read-out: Ragweed plant response rating (0 to 100 scale where 0 is no effect and 100 is complete control)), 20%; in [6] (500 g ai/ha, Preemergence, visual injury vs untreated controls after approximately 10 d, read-out: Ryegrass, Italian plant response rating (0 to 100 scale where 0 is no effect and 100 is complete control)), 80%. The plant injury at 125 g/ha came out at 40% with corn (Zea mays) and 30% in [14].
